In ChEMBL document CHEMBL3397030, “Synthesis and biological evaluation of 3-phenyl-3-aryl carboxamido propanoic acid derivatives as small molecule inhibitors of retinoic acid 4-hydroxylase (CYP26A1)” (Bioorg Med Chem, 2015):
Activity calls are given as the source filed them. No cut-off for these calls is given here.

What was measured:
[1] = test system: HL-60; test: Induction of cell differentiation of human HL60 cells at 0.1 uM after 72 hrs by NBT dye based assay; assay type: functional
[2] = Growth inhibition of human HL60 cells at 0.1 uM after 48 hrs by MTT assay; assay type: functional; conditions: HL-60, 48 h, read-out: GI
[3] = test system: HL-60; test: Induction of CYP26A1 expression in human HL60 cells at 0.1 uM after 72 hrs; assay type: functional, cell-based
[4] = Growth inhibition of human HL60 cells at 10 uM in presence of 0.1 uM ATRA after 48 hrs by MTT assay; assay type: functional, HL-60
[5] = test system: HL-60; test: Induction of cell differentiation of human HL60 cells at 10 uM after 72 hrs by NBT dye based assay; assay type: functional
[6] = target: T1, Cytochrome P450 26A1 (Homo sapiens, UniProt O43174); test: Inhibition of CYP26A1 in ATRA-induced human HL60 cell microsomes incubated for 30 mins using ATRA and NADPH by HPLC method; assay type: cell-based, HL-60
T1 sequence (O43174 whole entry): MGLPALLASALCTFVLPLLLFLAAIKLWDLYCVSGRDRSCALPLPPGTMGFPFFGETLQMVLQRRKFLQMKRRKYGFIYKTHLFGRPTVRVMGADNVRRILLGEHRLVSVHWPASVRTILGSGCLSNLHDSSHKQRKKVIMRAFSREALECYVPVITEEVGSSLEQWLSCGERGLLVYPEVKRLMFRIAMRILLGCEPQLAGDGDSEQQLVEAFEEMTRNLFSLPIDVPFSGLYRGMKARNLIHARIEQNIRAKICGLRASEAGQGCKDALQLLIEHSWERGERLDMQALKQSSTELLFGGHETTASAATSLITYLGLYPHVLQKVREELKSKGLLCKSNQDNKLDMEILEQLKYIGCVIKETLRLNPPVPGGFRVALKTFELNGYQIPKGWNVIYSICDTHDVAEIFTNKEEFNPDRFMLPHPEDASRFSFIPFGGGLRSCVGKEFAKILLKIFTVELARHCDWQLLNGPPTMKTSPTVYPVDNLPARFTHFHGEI

[7] = Growth inhibition of human HL60 cells at 10 uM after 48 hrs by MTT assay; assay type: functional; conditions: HL-60, 48 h, read-out: GI
[8] = test system: HL-60; test: Induction of cell differentiation of human HL60 cells at 10 uM in presence of 0.1 uM ATRA after 72 hrs by NBT dye based assay; assay type: functional

Row | Compound | Activity [1] | inhibition of growth at 0.1 µM [2] | Activity [3] | growth inhibition (GI) [4] | Activity [5] | IC50 [6] | inhibition of growth at 10 µM [7] | Activity [8]
1 | CC1=C(/C=C/C(C)=C/C=C/C(C)=C/C(=O)O)C(C)(C)CCC1 [TRETINOIN] | 26.07% | 23.8% | Active |  |  |  |  | 
2 | Cc1cc(C(=O)NC(CC(=O)O)c2ccc(Cl)cc2)c(C)o1 (configuration not stated) |  |  |  | 49.53% | 0% | 2.73 µM | 10.3% | 46.61%
3 | Clc1cccc(C(c2ccc3[nH]cnc3c2)n2ccnc2)c1 (configuration not stated) [LIAROZOLE] |  |  |  | 48.26% | 0% |  | 15.4% | 46.71%
4 | Cc1nn(-c2ccccc2)c(Cl)c1C(=O)NC(CC(=O)O)c1cccc(Br)c1 (configuration not stated) |  |  |  | 56.15% | 0% | 1.87 µM | 6.16% | 48.51%
5 | Cc1ccc(C(CC(=O)O)NC(=O)c2cc(C)oc2C)cc1 (configuration not stated) |  |  |  | 44.85% | 0% | 3.09 µM | 5.85% | 42.62%
